Assay [1] deals with TRPC5. The following applies: TRPC5 inhibition; cited from earlier work.
Assay [2] has as its system TRPC5. Particulars: TRPC5 inhibition; cited from earlier work. The source holds these as a separate data set.
Assay [3] addresses T1, hTRPC5-T478C (Homo sapiens, UniProt Q9UL62).
T1 sequence (Q9UL62 1-973): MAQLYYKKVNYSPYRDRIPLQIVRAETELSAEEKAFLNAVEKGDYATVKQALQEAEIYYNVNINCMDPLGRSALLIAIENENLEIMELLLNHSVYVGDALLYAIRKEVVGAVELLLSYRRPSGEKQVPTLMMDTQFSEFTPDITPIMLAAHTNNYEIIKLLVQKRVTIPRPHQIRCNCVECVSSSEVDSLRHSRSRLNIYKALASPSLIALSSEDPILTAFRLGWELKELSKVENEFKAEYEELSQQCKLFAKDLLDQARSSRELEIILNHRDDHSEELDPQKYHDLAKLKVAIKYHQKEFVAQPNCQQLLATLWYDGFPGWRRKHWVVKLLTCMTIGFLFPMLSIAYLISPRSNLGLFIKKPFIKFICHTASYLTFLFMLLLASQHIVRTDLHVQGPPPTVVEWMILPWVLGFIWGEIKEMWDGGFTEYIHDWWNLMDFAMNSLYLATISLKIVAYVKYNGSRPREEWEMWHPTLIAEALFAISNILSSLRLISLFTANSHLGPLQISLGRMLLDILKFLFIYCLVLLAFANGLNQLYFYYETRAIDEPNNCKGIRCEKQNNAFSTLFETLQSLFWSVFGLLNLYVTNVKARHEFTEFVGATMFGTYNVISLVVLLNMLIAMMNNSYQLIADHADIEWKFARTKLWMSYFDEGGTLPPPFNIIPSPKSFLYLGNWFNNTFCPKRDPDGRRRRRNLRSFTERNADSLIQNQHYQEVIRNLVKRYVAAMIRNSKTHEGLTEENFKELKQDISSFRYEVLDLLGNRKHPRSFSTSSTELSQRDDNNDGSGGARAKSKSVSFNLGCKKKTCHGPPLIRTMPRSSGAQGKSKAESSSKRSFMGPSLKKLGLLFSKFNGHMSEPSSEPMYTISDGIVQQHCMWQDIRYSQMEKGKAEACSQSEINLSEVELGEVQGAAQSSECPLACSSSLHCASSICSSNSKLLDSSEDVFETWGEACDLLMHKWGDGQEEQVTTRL
Kind of assay: hTRPC5-T478C FLIPR calcium flux IC50 assay. Format: cell-based. The following applies: hTRPC5-T478C-HEK cells, Englerin A as channel agonist. The method, then:
(§1) Cell culture: hTRPC5-T478C-HEK cells were cultured in a humid environment in 5% CO2 at 37° C.
(§2) Cell culture medium ingredients: • DMEM, Supplier: Gibco, Catalog No. 11965-092; • FBS, Supplier: Gibco, Catalog No. 10099-141C, Concentration: 10%; • Pen/Strep, Supplier: Invitrogen, Catalog No. 15140-122, Concentration: 1%; • Zeocin, Supplier: Invitrogen, Catalog No. R25005, Concentration: 200 μg/mL; • Blasticidin S, Supplier: Invitrogen, Catalog No. R21001, Concentration: 5 μg/mL.
(§3) In general, the TRPC5-T478C cell line was passaged three times weekly. The dilution factor for each passage was 1:3. Once the cells reached about 80% confluence in the T-75 flask, the cell line was digested with trypsin for about 1 minute and the cell suspension was removed from the flask with a pipette. Depending on the dilution ratio, the removed cell suspension would be transferred to another T-75 flask containing cell culture medium. Note that in order to maintain the logarithmic growth of the cells, the confluence of the cells should be maintained at the subconfluent stage and the cells should be passaged once every 2 to 3 days depending on the proliferation rate of the cell line.
(1) Preparation of cell plate: the cells were separated according to the above-mentioned passaging and the cell density and viability were determined using a cell counter. The volume of the cell suspension was adjusted with a cell culture medium. After the density reached to the plating density, 1 μg/mL tetracycline was added to induce hTRPC5-T478C channel expression. The induced hTRPC5-T478C cells were then seeded onto poly-D-lysine (PDL)-coated 384-well plates at a density of 20000 cells/well (30 μL/well). Then the cells were cultured overnight in a cell culture incubator.
(2) Preparation of compound plate: the compounds were generally diluted with DMSO, prepared into a mother liquor and stored in a −20° C. refrigerator. A compound plating program was set on the ECHO processor, and the compounds were plated with ECHO according to the concentration gradient that was already set. In general, 9 concentrations were included with the highest concentration at 10 μM, 3-fold dilution, and 2 replicate wells. Englerin A was used as the channel agonist.
(3) On-machine testing: the cell plates and compound plates were prepared according to the above-mentioned methods. After the cell confluence of the cell plate reached 80%-90%, the cells were removed from the incubator and the testing started. Ca5 dye (Molecular Devices #R8185) was formulated with test buffer. After the cell plate culture medium was removed with Bravo, 25 μL of Ca5 dye was added to each well, and the plate was incubated for 1 hour. After 1 hour, the cell plate and compound plate were placed in FLIPR^TETRA (Molecular Devices, USA) for FLIPR detection.
Data analysis was performed using Excel 2013 (Microsoft, USA) software and GraphPad Prism 6.01 software. The maximum signal was generated by FLIPR software. Data analysis was performed using Excel (2013) and Prism 6.01. Data quality and data stability were controlled using S/B>2.50 and Z factor>0.50. The calculation formula was as follows: S/B=Avg100%/Avg0%; Z factor=1−(3*SD100%+3*SDO %)/|Avg100%-Avg0%.
A general note: A change in cytosolic calcium serves as a functional read-out for many receptors and channels.

Assay [4] concerns the target T1, hTRPC5-T478C. Kind of assay: hTRPC5-T478C patch clamp IC50 assay. The class given is cell-based. The following applies: hTRPC5-T478C-HEK cells, whole-cell patch clamp, Englerin A agonist. The method, then: as §1, §2, §3
(1) Extracellular fluid: sodium chloride (145 mmol/L), potassium chloride (4 mmol/L), magnesium chloride (1.5 mmol/L), glucose (10 mmol/L), hydroxyethyl piperazineethanesulfonic acid (HEPES, 10 mmol/L). The extracellular fluid was adjusted to pH 7.4 with NaOH, and the osmotic pressure was adjusted to about 305 mOsm/L with pure water or sucrose.
(2) Intracellular fluid: cesium chloride (140 mmol/L), ethylene glycol diethyl ether diamine tetraacetic acid (EGTA, 1 mmol/L), magnesium chloride (2 mmol/L), glucose (10 mmol/L), hydroxyethyl piperazineethanesulfonic acid (HEPES, 10 mmol/L). The intracellular fluid was adjusted to pH 7.2 with […], and the osmotic pressure was adjusted to about 295 mOsm/L with pure water or sucrose.
(3) The extracellular fluid was required to be formulated once a week, and the intracellular fluid was required to be subpackaged and stored at −20° C. after formulation.
Positive reference compounds Englerin A and 2-aminoethoxydiphenyl borate (2-APB) were dissolved in 100% DMSO and stored as a 10 mM working solution after formulation. The test compounds were dissolved in 100% DMSO and stored as a 10 mM working solution after formulation. The final concentration of DMSO in the test solution should be less than 0.3%.
Whole-cell patch clamping was performed at room temperature. The electrical signals recorded using an EPC 10 USB amplifier (HEKA Elektronik, Germany) were low-pass filtered at 3 kHz and finally recorded in PatchMaster 2×90.5 software (HEKA Elektronik, Germany). In this step, the quality control standards were that the cell high-resistance seal was formed at a value greater than 500 MOhms and the detection current was greater than 0.3 nA.
The recording electrode was a borosilicate glass capillary (GC150tF-10, Harvard Apparatus Co., UK), which was pulled by a vertical puller (NARISHIGE PC-10, Japan) and polished. In this step, the quality control standard was that the electrode resistance was between 2 to 5 MΩ.
During whole-cell patch clamp recordings, a continuous filling system (BT100-2J, LongerPump, China) was used to continuously perfuse extracellular fluid. The filling system was mounted on the stage of an upright microscope (FN—S2N, Nikon, Japan), and the filling tip was manually positioned under the microscope.
The voltage instructions for hTRPC5-T478C current amplitude detection were as follows: the cells were clamped as follows: the clamping potential changed in a stepped manner from −40 mV to −80 mV (duration: 50 ms); then the clamping voltage ramped up to +80 mV, and the whole process lasted for 200 ms; then clamping was performed at +80 mV for 50 ms, and finally, the voltage returned to the clamping potential of −40 mV. […]
(The patch-clamp technique gives a direct electrical read-out from membranes.)

For the compound `c1ccc(Cn2c(NCc3ccco3)nc3ccccc32)cc1` [AC1903], the LPS-induced proteinuria entry in the assay on TRPC5 [1] was “significantly reduces”. In the assay on TRPC5 [2], the podocyte cytoskeletal remodeling entry is recorded as “protects” and the “protamine sulfate-induced podocyte injury” value was “inhibits”.
Turning to `C=C(c1ccc(F)cc1C(F)(F)F)c1ncnc2c1CCN(c1cn[nH]c(=O)c1Cl)C2` [Compound WX003], the IC50 (usually the concentration at which inhibition is half-maximal) on hTRPC5-T478C [3] came out at 0.07 µM; on hTRPC5-T478C [4], 0.0894 µM.
With `CC(O)c1nc2c(c(Sc3ccc(F)cc3C(F)(F)F)n1)CCN(c1cn[nH]c(=O)c1Cl)C2` (stereo not shown) [Compound WX014], the IC50 at hTRPC5-T478C [3] worked out at 0.012 µM.
The same measure, in the same setting: for `O=c1[nH]ncc(N2CCc3c(ncnc3Sc3ccc(F)cc3Cl)C2)c1Cl` [Compound WX017] the value was 0.056 µM.
With `Cc1cc(N2CCCCC2)nc2ccccc12` [ML204], the LPS-induced proteinuria result in the assay with TRPC5 [1] is given as “significantly reduces”. In the assay on TRPC5 [2], the podocyte cytoskeletal remodeling entry was “protects” and the “protamine sulfate-induced podocyte injury” value is listed as “inhibits”.

The values above are taken from US20250122190A1, “HALOGEN-SUBSTITUTED PYRIDAZINONE COMPOUND AND APPLICATION THEREOF” (MEDSHINE DISCOVERY INC., priority 2021, published 2025).
